Source: US12459973B2, “Peptide compounds for reducing side effects of CB1 receptor agonists” (priority 2019, dated 2025)
Non-standard residues stand in square brackets, D forms with d. Residues, ends and D or L forms follow the SMILES beside them. No end group written: not given here.

Columns and labels:
[1] = in vitro; conditions: mouse, bEnd.3 brain endothelioma cells
Experimental: (§1) bEnd.3 brain endothelioma cells (ATCC® CRL-2299TM) were grown as a monolayer on 75 cm^2 T-flasks in DMEM supplemented with 10% fetal bovine serum (FBS), and 1% penicillin/streptomycin antibiotic solution (Gibco™, USA). Cells were cultured in a humidified atmosphere of 95% air and 5% CO2 at 37° C. (MCO-18AIC (UV), Sanyo, Japan), with the medium changed every other day. The cells were harvested from cell culture T-flasks when confluent with trypsin-EDTA (Gibco™, USA) and used in different assays (cell proliferation, in vitro BBB translocation and in vitro Bimolecular Fluorescence complementation).
(§2) The in vitro cytotoxicity of the compound to be evaluated is studied using the same cell line of the in vitro BBB model, namely bEnd.3 cells, to evaluate possible toxicity. bEnd.3 cell line was exposed to increasing concentrations of the compound for 24 h.
(§3) The assay is based on the ability of viable cells to reduce resazurin into resorufin, a highly fluorescent metabolite. Non-viable cells are not able to generate resorufin.
(§4) Therefore, using this approach is possible to distinguish between metabolic and non-metabolic cells, and indirectly to determine the cytotoxicity of different compounds. bEnd.3 cells were seeded onto a 96-well plate (Corning, USA) at 10,000 cells/100 μL/well and incubated for 24 h. After medium removal, 100 μL of previous diluted peptides (range between 0.01-50 μM) in DMEM medium were added to the wells. After 24 h incubation, 20 μL of CellTiter-Blue® Reagent was added to each well and incubated for 3 h in a humidified atmosphere of 5% CO2 at 37° C. The fluorescence intensity was measured with an λexc=560 nm and an λem=590 nm using an Infinite F200 TECAN plate reader. Medium and 1% Triton X-100-containing medium were used as positive controls (100% cell viability) and negative controls (0% cell viability), respectively. Cell viability (%) was determined using the following equation:
(§5) [formula] where Fp is the fluorescence intensity of peptide-treated cells, FNC is the fluorescence intensity for negative controls, and FPC is the fluorescence intensity for positive controls.
(§6) Experiments were performed on different days using independently grown cell cultures.

[2] = system: bEnd.3 cells; assay: in vitro; conditions: bEnd.3, 24 h, 0.01-50 μM
Experimental: as §1, §2, §3, §4, §5, §6

[3] = molecular target: T1, CB1R and 5-HT2AR heteromers (Homo sapiens, UniProt P28223); assay: Disruption of CB1R and 5-HT2AR heteromers by bimolecular fluorescence complementation; assay type: cell-based; conditions: HEK-293T, CB1R-nYFP + 5-HT2AR-cYFP, peptide 4 μM, 4 h, 37° C.
T1 construct: expressed in transfected cells; host or cells: HEK-293T
Description: The method described in “Viñals* X, Moreno* E, Lanfumey L, Cordomi A, Pastor A, de La Torre R, Gasperini P, Navarro G, Howell L A, Pardo L, Lluís C, Canela El, McCormick* P J, Maldonado* R, Robledo* P. Cognitive Impairment Induced by Delta9-tetrahydrocannabinol Occurs through Heteromers between Cannabinoid CB1 and Serotonin 5-HT2A Receptors. PLoS Biology, 13(7): e1002194 (2015)” was used with the slight modifications herein described herein to determine the in vitro capacity of the peptides to disrupt CB1R and 5-HT2AR heteromers.
To obtain the YFP Venus hemi-truncated proteins fused to the receptors of interest (5-HT2AR-cYFP, CB1R-nYFP), 5-HT2AR was subcloned to be in-frame with restriction sites of pcDNA3.1-cVenus, which contained the sequences encoding amino acid residues 156-238 of YFP Venus protein. Moreover, CB1R was subcloned to be in-frame with restriction sites of pcDNA3.1-nVenus, which contained the sequences encoding amino acid residues 1-155 of YFP Venus protein.
Expression of constructs was tested by confocal microscopy and the receptor fusion protein functionality by ERK1/2 phosphorylation.
Human embryonic kidney (HEK-293T) cells obtained from ATCC were grown in Dulbecco's modified Eagle's medium (DMEM) (Gibco) supplemented with 2 mM L-glutamine, 100 μg/ml sodium pyruvate, 100 U/ml penicillin/streptomycin, MEM Non-Essential Amino Acids Solution (1/100), and 5% (v/v) heat inactivated fetal bovine serum (FBS) (all supplements were from Invitrogen, Paisley, Scotland, UK). Cells were maintained at 37° C. in an atmosphere of 5% CO2.
Cells growing in 6-well dishes were transiently transfected with the cDNA encoding for CB1R fused to the YFP Venus N-terminal fragment (n-YFP) and 5-HT2AR fused to the YFP Venus C-terminal fragment (c-YFP) by the PEI (PolyEthylenlmine, Sigma) method. Cells were incubated 4 h with the corresponding cDNA together with PEI and 150 mM NaCl in a serum-starved medium. After 4 h, the medium was changed to a fresh complete culture medium.
After 48 h, cells were treated or not with the indicated TAT-peptides (4 μM) for 4 h at 37° C. To quantify the complemented YFP Venus expression, cells were washed twice in quick succession in HBSS with 10 mM glucose, detached, and resuspended in the same buffer. To control the cell number, sample protein concentration was determined using a Bradford assay kit (Bio-Rad, Munich, Germany) using bovine serum albumin dilutions as standards. 20 μg protein were distributed into 96-well microplates (black plates with a transparent bottom, Porvair, King's Lynn, UK), and fluorescence emission at 530 nm after the excitation at 500 nm with a Mithras LB940 (Berthold Technologies, Bad Wildbad, Germany) was recorded. Protein fluorescence was determined as fluorescence of the sample minus the fluorescence of untransfected cells (basal).

[4] = system: trypsin; conditions: peptide remaining by HPLC, incubation with trypsin 100:1, 37° C.
Experimental: (§7) A 1000 μg/1000 μL trypsin solution (Thermo Fisher Scientific) was prepared by suspending the lyophilized enzyme in 50 mM ammonium bicarbonate buffer, pH 8.2. Peptide dissolved in the same buffer (1 μg/L) was incubated with trypsin (peptide:trypsin ratio=100:1) for 24 h at 37° C. Samples were collected at various time points and digestion was stopped by addition of 20% (v/v) of 0.5% formic acid in H2O. Samples were stored at −20° C. until analyzed by reverse-phase HPLC-MS. Experiments are performed in duplicate and data were fit with GraphPad Prism.

[5] = system: trypsin; assay: in vitro; conditions: pH 8.2
Experimental: as §7

[6] = Novel object recognition test (memory); assay type: in vivo; conditions: Vehicle (IV) + THC 3 mg/kg IP, mice
Experimental: The method described in “Puighermanal E, Marsicano G, Busquets-Garcia A, Lutz B, Maldonado R, Ozaita A. Cannabinoid modulation of hippocampal long-term memory is mediated by mTOR signaling. Nature Neuroscience, 12(9): 1152-8 (2009)” was used with the slight modifications herein described to assess the effect of the peptides on memory.
On day 1 (Habituation), mice were habituated for 9 min to the V-maze in which the task was performed. On the second day (Training), mice were put back in the V-maze for 9 min, two identical objects were presented and the time that the mice spent exploring each object was recorded. The mice were again placed in the maze 24 h later for 9 min (Test), one of the familiar objects was replaced with a novel object and the total time spent exploring each of the two objects (novel and familiar) was computed. Object exploration was defined as the orientation of the nose to the object at less than 2 cm. A discrimination index was calculated as the difference between the times spent exploring the novel or familiar object divided by the total time exploring the two objects. A higher discrimination index is considered to reflect greater memory retention for the familiar object as normal mice spend more time exploring a novel object than a familiar one. […]

[7] = Hot plate test (analgesic effect); assay type: in vivo; conditions: Vehicle (IV) + THC 10 mg/kg IP, hot plate 52° C., mice
Experimental: The method described in “Monory K, Blaudzun H, Massa F, Kaiser N, Lemberger T, Schütz G, Wotjak C T, Lutz B*, Marsicano G*. Genetic Dissection of Behavioural and Autonomic Effects of D9-tetrahydrocannabinol in Mice. PLoS Biology, 5(10): e269, 2007” was used with the slight modifications herein described to assess the analgesic effect of the peptides.
THC-induced analgesia was measured using a hot plate analgesia meter (Hot/Cold Plate Test, Bioseb, USA) 60 min after intraperitoneal injection (IP) of THC dissolved in an IP vehicle (5% v/v of ethanol, 5% v/v of Cremophor-EL and 90% v/v saline) or injection of the vehicle (saline plus 2% DMSO) alone and by intravenous injection 90 min after the first injection of the peptide to be tested in an IV vehicle or of the vehicle alone. […] A cut-off time of 240 s was set to prevent tissue damage.

T1 sequence (P28223 whole entry, one chain of several): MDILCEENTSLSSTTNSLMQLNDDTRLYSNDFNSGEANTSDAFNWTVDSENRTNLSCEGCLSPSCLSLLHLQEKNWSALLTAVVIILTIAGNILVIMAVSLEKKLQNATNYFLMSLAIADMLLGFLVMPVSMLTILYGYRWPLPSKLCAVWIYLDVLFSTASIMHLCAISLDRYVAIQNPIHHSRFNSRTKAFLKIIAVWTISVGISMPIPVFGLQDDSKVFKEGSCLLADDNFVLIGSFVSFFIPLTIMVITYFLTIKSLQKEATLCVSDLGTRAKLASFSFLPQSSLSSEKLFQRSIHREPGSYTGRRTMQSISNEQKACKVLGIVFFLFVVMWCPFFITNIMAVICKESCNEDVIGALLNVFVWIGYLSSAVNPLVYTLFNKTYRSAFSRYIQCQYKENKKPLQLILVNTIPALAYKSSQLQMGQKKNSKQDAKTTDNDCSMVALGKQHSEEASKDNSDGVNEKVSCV

## CC[C@@H](C)[C@@H](NC(=O)CNC(=O)[C@@H](C)NC(=O)[C@H](NC(=O)[C@@H](Cc1ccc(O)cc1)NC(=O)[C@@H](C)NC(=O)[C@@H](Cc1ccc(O)cc1)NC(=O)[C@@H](CCSC)NC(=O)[C@@H](Cc1ccc(O)cc1)NC(=O)[C@H](NC(=O)[C@@H](CC(C)C)NC(=O)[C@H](N)Cc1c[nH]c2ccccc12)[C@H](C)CC)C(C)C)C(=O)N[C@H](CC(C)C)C(=O)N[C@H](CCCCN)C(=O)N[C@H](CCCNC(=N)N)C(=O)N[C@H](Cc1c[nH]c2ccccc12)C(N)=O [Example 1, D-Trp-D-Leu-D-Ile-D-Tyr-D-Met-D-Tyr-D-Ala-D-Tyr-D-Val-D-Ala-Gly-D-Ile-D-Leu-D-Lys-D-Arg-D-Trp-NH2] (H-[dW][dL][dI][dY][dM][dY][dA][dY][dV][dA]G[dI][dL][dK][dR][dW]-NH2)
[1]
  EC50 at 24 h: > 50 µM
  viability at 24 h, 0.012 µM: 98.3%
  viability at 24 h, 0.024 µM: 98.3%
  viability at 24 h, 0.049 µM: 98.7%
  viability at 24 h, 0.1 µM: 95.4%
  viability at 24 h, 0.2 µM: 100%
  viability at 24 h, 0.39 µM: 102%
  viability at 24 h, 0.78 µM: 98.9%
  viability at 24 h, 1.56 µM: 102%
  viability at 24 h, 3.12 µM: 100%
  viability at 24 h, 6.25 µM: 96.6%
  viability at 24 h, 12.5 µM: 104%
  viability at 24 h, 25 µM: 96.6%
  viability at 24 h, 50 µM: 75.7%
[2]
  toxicity (in words): no significant toxicity
[3]
  % vs. control (bimolecular fluorescence complementation): 49.8%
[4]; pH 8.2, 24 h
  % at t = 24 h: over 80%
[4]; pH 8.2, t = 0
  % at t = 0: 100.00 ± 2.05%
[5]
  remaining at 24 h, 1 μg/L: 83 ± 4.04%

## CCCCCc1cc(O)c2c(c1)OC(C)(C)[C@@H]1CCC(C)=C[C@@H]21 [THC, Δ9-tetrahydrocannabinol]
[6]
  Discrimination index % increase vs. control: −52%
[7]
  Jumping latency % increase vs control: 71.4%
  Licking latency % increase vs control: 104.2%

## Glu-Thr-Tyr-Leu-Met-Phe-Trp-Ile-Gly-Val-Thr-Ser-Val-Leu-Leu-Leu-Phe-Ile-Val-Tyr-Ala-Tyr-Met-Tyr-Ile-Leu-Trp-Gly-Arg-Lys-Lys-Arg-Arg-Gln-Arg-Arg-Arg-NH2 (ETYLMFWIGVTSVLLLFIVYAYMYILWGRKKRRQRRR-NH2) [Reference Example 1]
[3]
  % vs. control (bimolecular fluorescence complementation): 52.2%
  Fluorescense units (bimolecular fluorescence complementation): 11154 fluorescence units

## VYAYMYILW[dA]G[dI][dL][dK][dR][dW]-NH2 [Reference Example 2]
[3]
  % vs. control (bimolecular fluorescence complementation): 63.5%
  Fluorescense units (bimolecular fluorescence complementation): 13568 fluorescence units

## [dW][dL][dI][dY][dM][dA]G[dI][dL][dK][dR][dW]-NH2 [Reference Example 3]
[3]
  % vs. control (bimolecular fluorescence complementation): 78.5%
  Fluorescense units (bimolecular fluorescence complementation): 16754 fluorescence units
